Results published in US6489358B2, “Pharmaceutical compositions containing mupirocin” (Agis Industries (1983) Ltd., priority 2000, dated 2002).

Key:
[1] = Solubility of 2% solutions (calculated as free acid) in pharmaceutically acceptable hydrophilic solvents; type: physicochemical
Source text: The following table presents the solubility of mupirocin calcium amorphous, compared to the solubility of the crystalline form, in various pharmaceutically acceptable hydrophilic solvents. We prepared 2% solutions (calculated as free acid), similar to the commercially available products.

[2] = Stability of 2% solution on heating (Δ % impurities); type: physicochemical
Protocol: The stability of Mupirocin Calcium amorphous in various acceptable pharmaceutical solvents was tested by heating a 2% solution to 80° C. for 24 hours or by heating it to 40° for 1 month. Bactroban cream was used as a reference.

[3] = from U.S Pat. No. 4,916,155; cited from earlier work
[4] = 2% solution (calculated as free acid) in Glycerine
[5] = 2% solution (calculated as free acid) in Hexylene glycol
[6] = 2% solution in Propylene Glycol

Row | Structure (SMILES) | Solubility (After heating for 30 min. at 70° C.) [1, 4] | Solubility (at room temperature) [1, 4] | Solubility (at room temperature) [1, 5] | Solubility in hydrophilic solvents compared with the crystalline form ([1]; hydrophilic solvents) | Δ % impurities (after heating for 1 month at 40° C.) ([2]; 2% solution in Glycerine) [%] | Δ % impurities (after heating for 24 h at 80° C.) ([2]; 2% solution in Glycerine) [%] | Δ % impurities (after heating for 1 month at 40° C.) ([2]; 2% solution in Hexylene Glycol) [%] | Δ % impurities (after heating for 24 h at 80° C.) ([2]; 2% solution in Hexylene Glycol) [%] | Δ % impurities (after heating for 1 month at 40° C.) [2, 6] [%] | Δ % impurities (after heating for 24 h at 80° C.) [2, 6] [%] | Δ % impurities (after heating for 1 month at 40° C.) ([2]; 2% solution in Water) [%] | Δ % impurities (after heating for 24 h at 80° C.) ([2]; 2% solution in Water) [%] | Stability of the solution ([2]; solution in hexylene glycol) | Solubility (After heating for 30 min. at 70° C.) ([1]; 2% solution (calculated as free acid) in Glycerine, calcium dihydrate) | Solubility (After heating for 30 min. at 70° C.) [1, 5] | Solubility (at room temperature) ([1]; 2% solution (calculated as free acid) in Hexylene glycol, calcium dihydrate) | Solubility (at room temperature) ([1]; 2% solution (calculated as free acid) in Propylene glycol, calcium dihydrate) | Solubility (After heating for 30 min. at 70° C.) ([1]; 2% solution (calculated as free acid) in Water) | Solubility (at room temperature) ([1]; 2% solution (calculated as free acid) in Water, calcium dihydrate) | Solubility in water [3]
1 | C/C(=C\C(=O)OCCCCCCCCC(=O)[O-])C[C@@H]1OC[C@H](C[C@@H]2O[C@H]2[C@@H](C)[C@H](C)O)[C@@H](O)[C@H]1O.C/C(=C\C(=O)OCCCCCCCCC(=O)[O-])C[C@@H]1OC[C@H](C[C@@H]2O[C@H]2[C@@H](C)[C@H](C)O)[C@@H](O)[C@H]1O.O.O.[Ca+2] [Mupirocin Ca amorphous, amorphous calcium mupirocin] | Soluble | Not soluble | Soluble | much more soluble in hydrophilic solvents | 29.2 | 29.4 | 1.5 | 2 | 7.5 | 8.7 | 36.7 | 36.4 | good stability |  |  |  |  |  |  | 
2 | C/C(=C\C(=O)OCCCCCCCCC(=O)[O-])C[C@@H]1OC[C@H](C[C@@H]2O[C@H]2[C@@H](C)[C@H](C)O)[C@@H](O)[C@H]1O.C/C(=C\C(=O)OCCCCCCCCC(=O)[O-])C[C@@H]1OC[C@H](C[C@@H]2O[C@H]2[C@@H](C)[C@H](C)O)[C@@H](O)[C@H]1O.O.O.[Ca+2] [Mupirocin Ca crystalline, crystalline Mupirocin calcium dihydrate] |  |  |  |  |  |  |  |  |  |  |  |  |  | Partially soluble | Not soluble | Not soluble | Soluble | Not soluble | Not soluble | poor solubility in water
